The source of these data is paper PMC8968665, “Verteporfin is a substrate-selective γ-secretase inhibitor that binds the amyloid precursor protein transmembrane domain” (The Journal of Biological Chemistry, 2022).

For experiment [1], the target named is T1, C99 domain of the human amyloid precursor protein (Homo sapiens, UniProt P05067).
T1 construct: the transmembrane 99 residue C-terminal (C99) domain; His tag (either the C-terminal hexa-His that is kept, or the N-terminal His of C99-NT2 removed by thrombin); made in house; host or cells: E. coli BL21DE3
In words: TROSY NMR titration of C99 by verteporfin, fit to 1:1 binding model. How it is done:
The preparation of NMR screening samples consisted of final concentrations of 50 μM C99, 2.5% w/v LMPG, […] buffer imidazole, 5% v/v D2O, 0.5 mM EDTA, pH 6.5. To ensure that these final conditions were maintained, the individual components of the screening samples were added from stocks in a specific order. For example, to make 10 ml of screening sample in imidazole NMR buffer, the following was added: (1) 10 by 250 μl frozen stocks of 200 μM protein were thawed on ice and transferred to a 15 ml conical vial; (2) 1.25 ml of 20% w/v LMPG stock (dissolved in H2O) was added to the conical vial, which was mixed by vortexing; (3) 1 ml of 10× concentrated imidazole NMR buffer was added to the conical vial and mixed by vortexing; (4) the sample was then diluted to 10 ml by adding 4.75 ml of ddH2O and 0.5 ml of D2O and allowed to reach equilibrium for at least 60 min. This final pool contained 50 μM C99, 25 mM imidazole, 100 mM NaCl, 2.5% LMPG, 5% v/v D2O, 0.5 mM EDTA, pH 6.5. At that point, the samples (199 μl for each well) were distributed into 96-well plates containing predispensed compounds, thoroughly mixed by pipette, and the complete 200 μl mixtures were transferred to 3 mm x 4 inch NMR tubes. At this point, each 3 mm NMR tube contained a 200 μl sample of 50 μM C99, 50 μM Compound, 25 mM imidazole, 100 mM NaCl, 2.5% w/v LMPG, 5% v/v D2O, 0.5% v/v DMSO, 0.5 mM EDTA, pH 6.5. Loaded NMR tubes were cleaned with 100% Ethanol on a kimwipe, securely capped, and transferred to an NMR tube rack compatible with a Bruker SampleJet system.
(§1) A Bruker Avance III 600 MHz NMR spectrometer equipped with a cryoprobe (CPTCI) and automated sample changer (SampleJet) was used to collect NMR spectra. Sample details are described above. For high-throughput screening data collection, the ^15N-^1H BEST-TROSY (b_trosy3gpph.2) experiment with 64 scans for each of 96 increments and a relaxation delay of 200 ms was run at 318 K for a total data acquisition time of 35 min per sample. To achieve enhanced signal-to-noise ratio, follow-up titrations and control experiments were conducted using the BEST-TROSY pulse program with 200 scans per 96 increments at 318 K, for a total data acquisition time of 110 min per sample. Data were processed using Bruker Topspin 3.6 using a Gaussian window function with a line broadening of -10 and a Gaussian max of 0.1 in both dimensions. NMR data were then further processed and analyzed using NMR-FAM SPARKY, plotted using GraphPad Prism 9, and prepared for publication figures using Affinity Designer.
2D ^15 N-^1H HSQC NMR data used to calculate dissociations constant (KD) values by first normalizing 2D data using the established formula ([78]) (Equation 1):(1) δ(1H,15N)=√(1/2[δ2H+.14∗δ2N]) Where δ(1H,15N) is the square root of linear chemical shifts in each respective dimension, δH and δN with the Nitrogen normalization factor of 0.14.
After 2D normalization, the data were fit to a hyperbolic binding isotherm using one of the following formulas depending of the data:(2) Y=Bmax∗X/(KD+X)+NS∗X
For this equation, Y is the total binding, Bmax is the maximum binding in the same units as Y, X is the added ligand in molar units, KD is the equilibrium dissociation constant in the same units as X, and NS is a linear term to account for either vehicle or nonspecific verteporfin effects.(3) Y=Bmax∗X/(KD+X)
For this equation, Y is the total binding, Bmax is the maximum binding in the same units as Y, X is the added ligand in molar units, KD is the equilibrium dissociation constant in the same units as X. 1D NMR-binding curves were generated by directly inputting 1D chemical shift perturbations directly into the proper version of Equation 2. Peak height data, such as that quantified in Figures 4 and S4, were first generated using the peak-picking function in NMRFAM Sparky, and peak heights as a function of ligand concentration were used to generate a KD by addition into Equation 2.

Experiment [2] concerns T2, C99 L723A.
T2 construct: the transmembrane 99 residue C-terminal (C99) domain; hexa-His; made in house
Kind of experiment: TROSY NMR titration of C99 L723A mutant by verteporfin. Particulars: LMPG micelles, up to 300 µM verteporfin, n=1. Format: binding, human. The method, then:
as §1

Experiment [3] addresses T3, γ-secretase cleavage of Notch-1 TM/JM (Homo sapiens, UniProt P49768+Q92542+Q96BI3+Q9NZ42).
T3 construct: made in house; host or cells: Notch-1 TM/JM: E. coli BL21DE3 Star
Kind of experiment: γ-Secretase assay, Notch-1 TM/JM cleavage, NICD by anti-V1744 Western blot. Format: biochemical. The method, then:
The γ-secretase-dependent proteolysis assays with both substrates (C100-FLAG and HexaHis Notch 1 JM/TM) were performed in a weak zwitterionic detergent (CHAPSO, 3-[(3- cholamidopropyl)dimethylammonio]-2-hydroxy-1-propanesulfonate) solubilized conditions ([79], [80]). C100 is C99 with an added N-terminal Met residue. Stock solution of purified γ-secretase ([81], [82]) was diluted to 30 nM in standard assay buffer containing 50 mM HEPES (pH 7.0), 150 mM NaCl, 0.1% DOPC (phosphatidylcholine), 0.025% DOPE (phosphatidylethanolamine), and 0.25% CHAPSO) and incubated at 37 °C for 30 min, whereupon stock solution of verteporfin or inhibitor (LY411,575) was added to achieve the desired concentration with 1% final DMSO concentration. Proteolytic reactions were initiated by adding purified substrates (either C100-FLAG(79) or HexaHis-Notch 1 JM/TM(77)) and incubating at 37 °C (16 h for C100Flag and 4 h for HexaHis-Notch 1 JM/TM). Reactions were quenched with SDS, and the cleaved intracellular domain products (AICD-FLAG released from C100-FLAG or truncated intracellular domain (NICD) released from the proteolysis of Hexa-His Notch 1 JM/TM) were visualized by Western blot using specific primary antibodies, anti-FLAG antibody for FLAG-tagged AICD, and neoepitope-specific anti-V1744 antibody for NICD ([80], [83], [84]).
For orientation: In western blotting, separated proteins are transferred to a membrane and probed.

“And” between values parts separate entries of the source, which are not always exact repeats. Equal entries are not always repeated. “Also recorded” adds a separate entry of the source. Where two headings read alike, the source gives them in different places.

T3 sequence (Q92542 34-709, other chains not shown): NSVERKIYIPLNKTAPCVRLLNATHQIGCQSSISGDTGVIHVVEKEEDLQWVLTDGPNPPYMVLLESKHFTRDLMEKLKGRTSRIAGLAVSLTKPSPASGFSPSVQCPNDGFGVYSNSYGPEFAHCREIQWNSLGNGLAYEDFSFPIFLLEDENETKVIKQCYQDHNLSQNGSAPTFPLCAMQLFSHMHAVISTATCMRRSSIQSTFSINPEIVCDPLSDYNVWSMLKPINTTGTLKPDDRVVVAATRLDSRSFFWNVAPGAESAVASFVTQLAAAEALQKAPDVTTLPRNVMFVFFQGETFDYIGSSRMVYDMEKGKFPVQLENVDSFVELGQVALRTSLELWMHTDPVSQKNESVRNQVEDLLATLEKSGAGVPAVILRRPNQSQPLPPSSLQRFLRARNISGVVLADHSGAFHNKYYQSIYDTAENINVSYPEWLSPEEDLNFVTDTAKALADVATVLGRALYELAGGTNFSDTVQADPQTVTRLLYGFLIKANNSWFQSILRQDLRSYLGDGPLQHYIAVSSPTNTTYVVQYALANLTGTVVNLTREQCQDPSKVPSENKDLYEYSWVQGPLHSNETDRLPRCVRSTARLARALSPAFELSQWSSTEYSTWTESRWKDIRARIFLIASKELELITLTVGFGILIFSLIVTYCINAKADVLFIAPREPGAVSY
T3 sequence (Q96BI3 whole entry, other chains not shown): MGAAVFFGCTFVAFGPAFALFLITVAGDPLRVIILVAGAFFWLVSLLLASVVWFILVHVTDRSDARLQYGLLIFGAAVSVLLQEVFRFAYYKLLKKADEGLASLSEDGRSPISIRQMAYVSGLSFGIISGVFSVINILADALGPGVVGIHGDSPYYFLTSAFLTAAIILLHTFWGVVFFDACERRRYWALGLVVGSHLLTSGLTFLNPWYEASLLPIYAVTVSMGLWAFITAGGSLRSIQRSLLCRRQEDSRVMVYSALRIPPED
T3 sequence (Q9NZ42 whole entry, other chains not shown): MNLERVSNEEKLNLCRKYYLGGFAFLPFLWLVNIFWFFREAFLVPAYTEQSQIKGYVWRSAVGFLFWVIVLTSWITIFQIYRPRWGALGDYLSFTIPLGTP
T1 sequence (P05067 672-770 limits assumed): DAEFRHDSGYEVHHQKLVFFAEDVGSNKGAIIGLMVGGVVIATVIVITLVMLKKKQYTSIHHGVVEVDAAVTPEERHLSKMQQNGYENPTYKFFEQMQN

Broadly, the Kd is the free concentration of one partner at which half of the binding sites on the other are occupied at equilibrium, for simple one-to-one binding. The term IC50 denotes the concentration needed to halve the response being measured. Turning to verteporfin, the Kd was ~17 µM in experiment [1] (C99 in model membranes, read-out: KD of 1:1 complex); 17 ± 4 µM in experiment [1] (D6PC/DMPC (q = 0.33) bicelles, n = 1, error of the fit, Fig. 3C, read-out: KD from C99 peak E766); 16 ± 4 µM in experiment [1] (D6PC/DMPC (q = 0.33) bicelles, n = 1, error of the fit, Fig. 3C, read-out: KD from C99 peak T761); 17 ± 11 µM in experiment [1] (LMPG micelles, 50 μM C99, pH 6.5, 318 K, 1:1 binding model, read-out: average dissociation constant (KD) across multiple residues in and around the TM domain); 15 to 47 µM and 10 to 50 µM in experiment [1] (depending on the membrane mimetic used (LMPG, DDMB micelles, DHPC-DMPC bicelles), read-out: KD range across membrane mimetics); 43 µM and 47 µM in experiment [1] (nonionic DDMB micelles, n=1, error of the fit, Fig. S2C, read-out: KD from fitting of two different peaks). Further, the Kd in experiment [1] (untagged C99 in DDMB micelles, Fig. S2 title, read-out: KD) worked out at 45 ± 22 µM. The “binding to C99 L723A” value in experiment [2] was “nearly complete lack of binding; also recorded: binding was disrupted”. Besides, the “reduction of Notch-1 cleavage at saturating verteporfin” value in experiment [3] (30 nM γ-secretase) is given as “approximately 75%”. In experiment [3] (30 nM γ-secretase, Notch-1 TM/JM, 4 h, 37 °C, n = 3, estimated, at concentrations above 200 μM, read-out: IC50, inhibition of NICD production), the IC50 is 240 ± 66 µM. In addition, the “inhibition of Notch-1 cleavage” value in experiment [3] (verteporfin at 164 μM (IC50 for C99 cleavage)) is “no inhibition”. Moreover, in experiment [3] (verteporfin below ca. 200 μM, relative to 0 verteporfin), the “effect on Notch-1 cleavage at low concentrations” value was “first activated; also recorded: enhanced; also recorded: stimulate”.
